These are literature values, as cited in patent US9302023B2, “Aldehyde gas deodorant and method for producing same” (TOAGOSEI CO., LTD., priority 2012, dated 2016).

The conditions of the first data set: stated as known; unsupported substance.
Regarding `NNC(=O)C(=O)NN` [oxalic dihydrazide], the “Mutagenicity of the substance itself” value is listed as “negative”.

As for `NNC(=O)NN` [carbohydrazide], the “Mutagenicity of the substance itself” value is given as “negative”.

Turning to `NNC(=O)CCCCC(=O)NN` [adipic dihydrazide], the “Mutagenicity of the substance itself” value is recorded as “negative”. In the case of `NN` [hydrazine], the “Mutagenicity of the substance itself” value is recorded as “positive”. Regarding `NNC(=O)CCC(=O)NN` [succinic dihydrazide], the “Mutagenicity of the substance itself” value is “weakly positive”. For the compound `NN` [hydrated hydrazine], the “Mutagenicity of the substance itself” value is recorded as “strongly positive”.

The same data set, now with this note: stated as known; unsupported substance; listed as Hydrazine.
In the case of `NN` [hydrazine], the “Mutagenicity of the substance itself” value is listed as “highly positive”.
